In ChEMBL document CHEMBL1156558, “Improvement of the transactivation activity of phenylpropanoic acid-type peroxisome proliferator-activated receptor pan agonists: effect of introduction of fluorine at the linker part” (Bioorg Med Chem Lett, 2008) one finds EC50 data, which are given here for 14 compounds.

Holding throughout (assay type): functional, cell-based
For assay [1], the target named is T1, Peroxisome proliferator-activated receptor delta (Homo sapiens, UniProt Q03181).
T1 sequence (Q03181 whole entry): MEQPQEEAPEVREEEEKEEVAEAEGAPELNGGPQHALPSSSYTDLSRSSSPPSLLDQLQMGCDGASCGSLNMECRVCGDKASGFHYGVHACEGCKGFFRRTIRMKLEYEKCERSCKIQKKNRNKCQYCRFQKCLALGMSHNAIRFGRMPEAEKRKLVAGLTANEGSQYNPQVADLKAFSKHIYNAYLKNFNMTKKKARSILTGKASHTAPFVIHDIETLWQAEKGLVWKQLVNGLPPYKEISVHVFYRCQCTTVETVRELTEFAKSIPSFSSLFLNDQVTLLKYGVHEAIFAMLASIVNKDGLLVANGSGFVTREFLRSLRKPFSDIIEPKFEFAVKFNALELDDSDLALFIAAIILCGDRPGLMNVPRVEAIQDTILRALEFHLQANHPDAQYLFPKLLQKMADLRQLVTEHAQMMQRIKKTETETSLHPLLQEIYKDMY
As to the kind of experiment: Agonist activity at PPARdelta transfected in HEK293 cells by GAL4 transactivation assay.

In assay [2] the target is T2, Peroxisome proliferator-activated receptor gamma (Homo sapiens, UniProt P37231).
T2 sequence (P37231 whole entry): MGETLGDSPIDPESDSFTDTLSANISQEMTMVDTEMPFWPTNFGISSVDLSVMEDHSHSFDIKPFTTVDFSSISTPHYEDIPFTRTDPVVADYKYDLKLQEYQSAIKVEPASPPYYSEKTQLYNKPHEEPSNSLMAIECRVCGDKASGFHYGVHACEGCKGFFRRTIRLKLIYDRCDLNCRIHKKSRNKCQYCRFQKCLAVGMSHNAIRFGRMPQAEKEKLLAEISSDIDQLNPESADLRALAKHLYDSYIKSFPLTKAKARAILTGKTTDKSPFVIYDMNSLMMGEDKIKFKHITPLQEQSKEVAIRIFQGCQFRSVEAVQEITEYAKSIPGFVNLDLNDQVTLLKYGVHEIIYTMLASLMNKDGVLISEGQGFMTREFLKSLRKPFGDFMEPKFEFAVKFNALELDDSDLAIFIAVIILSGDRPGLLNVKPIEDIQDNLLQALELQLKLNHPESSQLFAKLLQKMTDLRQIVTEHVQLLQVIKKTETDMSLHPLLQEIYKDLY
As to the kind of experiment: Agonist activity at PPARgamma transfected in HEK293 cells by GAL4 transactivation assay.

Assay [3] addresses T3, Peroxisome proliferator-activated receptor alpha (Homo sapiens, UniProt Q07869).
T3 sequence (Q07869 whole entry): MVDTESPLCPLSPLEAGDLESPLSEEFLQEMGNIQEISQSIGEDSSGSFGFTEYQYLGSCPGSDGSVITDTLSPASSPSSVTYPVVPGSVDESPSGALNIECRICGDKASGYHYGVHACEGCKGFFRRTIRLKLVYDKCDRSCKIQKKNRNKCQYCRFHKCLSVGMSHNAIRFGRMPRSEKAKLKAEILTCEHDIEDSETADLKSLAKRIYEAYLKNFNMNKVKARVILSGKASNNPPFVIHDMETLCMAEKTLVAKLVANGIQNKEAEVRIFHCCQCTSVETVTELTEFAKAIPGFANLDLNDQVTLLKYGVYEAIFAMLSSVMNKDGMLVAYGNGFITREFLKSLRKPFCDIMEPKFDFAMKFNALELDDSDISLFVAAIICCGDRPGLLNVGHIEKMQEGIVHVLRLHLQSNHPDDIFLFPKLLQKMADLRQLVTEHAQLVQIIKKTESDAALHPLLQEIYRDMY
Description: Agonist activity at PPARalpha transfected in HEK293 cells by GAL4 transactivation assay.

The structures appear in SMILES notation.

Consider `CCOc1cc(F)c(CC(CC)C(=O)O)cc1CNC(=O)c1ccc(C23CC4CC(CC(C4)C2)C3)cc1F` (racemic), for which the EC50 was 0.055 µM in assay [1], 0.022 µM in assay [2] and 0.0075 µM in assay [3].
With `CCCOc1cc(F)c(C[C@H](CC)C(=O)O)cc1CNC(=O)c1ccc(C23CC4CC(CC(C4)C2)C3)cc1F`, the EC50 in assay [1] worked out at 0.025 µM; in assay [2] it was 0.038 µM; in assay [3], 0.012 µM.
Turning to `CCC(Cc1cc(F)c(OC)c(CNC(=O)c2ccc(C34CC5CC(CC(C5)C3)C4)cc2)c1)C(=O)O` (racemic), the figures for the EC50 in assay [1], in assay [2] and in assay [3] were 2.2 µM, 0.19 µM and 0.26 µM, respectively.
`CCCOc1cc(F)c(CC(CC)C(=O)O)cc1CNC(=O)c1ccc(C23CC4CC(CC(C4)C2)C3)cc1` (racemic): the figures for the EC50 in assay [1], in assay [2] and in assay [3] were 0.06 µM, 0.015 µM and 0.017 µM, respectively.
In the case of `CCC(Cc1cc(F)c(OC)c(CNC(=O)c2ccc(C(F)(F)F)cc2)c1)C(=O)O` (racemic), the results for the EC50 in assay [1], in assay [2] and in assay [3] were 0.059 µM, greater than 10 µM and 0.054 µM, respectively.
Consider `CCC(Cc1ccc(OC)c(CNC(=O)c2ccc(C34CC5CC(CC(C5)C3)C4)cc2F)c1)C(=O)O` (racemic), for which the figures for the EC50 in assay [1], in assay [2] and in assay [3] were 0.55 µM, 0.14 µM and 0.06 µM, respectively.
On to `CCC(Cc1ccc(OC)c(CNC(=O)c2ccc(C(F)(F)F)cc2F)c1)C(=O)O` (racemic), for which the EC50 amounted to 0.029 µM in assay [1], 2.6 µM in assay [2] and 0.0079 µM in assay [3].
Take `CCCOc1cc(F)c(CC(CC)C(=O)O)cc1CNC(=O)c1ccc(C23CC4CC(CC(C4)C2)C3)cc1F` (racemic): the EC50 in assay [1] is 0.028 µM; in assay [2], 0.035 µM; in assay [3] it was 0.013 µM.
Consider `CCC(Cc1ccc(OC)c(CNC(=O)c2ccc(C34CC5CC(CC(C5)C3)C4)cc2)c1)C(=O)O` (racemic), for which the figures for the EC50 in assay [1], in assay [2] and in assay [3] were 0.94 µM, 0.11 µM and 0.053 µM, respectively.
As to `CCC(Cc1cc(CNC(=O)c2ccc(C(F)(F)F)cc2)c(OC)cc1F)C(=O)O` (racemic), the EC50 in assay [1] amounted to 0.02 µM; in assay [2], 1.1 µM; in assay [3] it was 0.0036 µM.
`CCCOc1ccc(C[C@H](CC)C(=O)O)cc1CNC(=O)c1ccc(C23CC4CC(CC(C4)C2)C3)cc1` registered an EC50 in assay [3] of 0.058 µM.
With `CCOc1cc(F)c(CC(CC)C(=O)O)cc1CNC(=O)c1ccc(C23CC4CC(CC(C4)C2)C3)cc1` (racemic), the EC50 in assay [1] worked out at 0.094 µM; in assay [2], 0.024 µM; in assay [3] it was 0.0071 µM.
`CCC(Cc1cc(CNC(=O)c2ccc(C34CC5CC(CC(C5)C3)C4)cc2)c(OC)cc1F)C(=O)O` (racemic): the figures for the EC50 in assay [1], in assay [2] and in assay [3] were 0.28 µM, 0.036 µM and 0.013 µM, respectively.
Turning to `CCCOc1cc(F)c(C[C@@H](CC)C(=O)O)cc1CNC(=O)c1ccc(C23CC4CC(CC(C4)C2)C3)cc1F`, the EC50 came out at 0.18 µM in assay [1], 0.16 µM in assay [2] and 0.2 µM in assay [3].

By EC50 is commonly meant the concentration at which the effect is half-maximal. A low value points to an effect from little substance.
